Legend:
[1] = molecular target: T1, NE (Homo sapiens, UniProt P08246); assay: Enzyme kinetics study of NE with BTPDNe (Michaelis-Menten, HPLC); assay type: biochemical; settings: NE 0.1 U/mL, BTPDNe 2-80 μM
T1 sequence (P08246 30-267): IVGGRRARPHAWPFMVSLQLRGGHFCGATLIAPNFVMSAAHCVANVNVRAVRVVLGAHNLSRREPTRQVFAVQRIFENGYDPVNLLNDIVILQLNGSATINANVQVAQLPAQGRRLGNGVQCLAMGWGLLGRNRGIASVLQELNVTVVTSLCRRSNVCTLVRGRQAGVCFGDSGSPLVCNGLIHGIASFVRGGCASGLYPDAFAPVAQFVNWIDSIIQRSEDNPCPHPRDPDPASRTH
Procedure: To carry out the kinetic assay, various concentrations of BTPDNe (2, 5, 10, 20, 40 and 80 μM) were incubated with NE (0.1 U/mL) at 37° C. for 10 min in 50 mM Tris, 1 M NaCl, 0.05% (w/v) Brij-35, and at pH=7.5. After incubation, quantification analyses were determined by HPLC. The initial reaction velocity was calculated, plotted against the concentration of BTPDNe, and fitted to a Michaelis-Menten curve. Finally, the kinetic parameters were calculated by Michaelis Menten equation: […]
where v is initial velocity, and [S] is substrate concentration.

[2] = Blood test: chemiluminescence after incubation in healthy mouse blood; settings: 20 μM, 30 min, 100 μL blood
Procedure: BTPDNe (20 μM) and MPDNe (20 μM) were incubated for 30 min in healthy mouse blood (100 μL), respectively. Chemiluminescence intensities were measured by IVIS system bioluminescence with an acquisition time of 60 s.

[3] = test system: 3T3 cells; assay: Cytotoxicity assay (MTS), 3T3 cells; assay type: cell-based, mouse; settings: 2.5 to 50 μM, 24 h
Procedure: (§1) Neutrophils and normal mouse embryonic fibroblasts (3T3) cells were seeded in 96-well plates which have 5×10^4 cells per well and incubated for 24 h. Then, BTPDNe at different concentrations (2.5, 5, 10, 20 and 50 μM) was added into the neutrophils and 3T3 cells, respectively. After 24 h incubation, MTS assay was added to the cell for 4 h incubation. After incubation, the absorbance of MTS at 490 nm was recorded by using a microplate reader (SpectraMax M, Switzerland). The assays were performed in five sets for each concentration.

[4] = test system: neutrophils; assay: Cytotoxicity assay (MTS), neutrophils; assay type: cell-based; settings: 2.5 to 50 μM, 24 h
Procedure: as §1

[5] = test system: neutrophils; assay: In vitro cell chemiluminescent imaging; assay type: cell-based
Procedure: 3T3 cells and immune cells (neutrophils, DC cells, T-cells and macrophage) (10^4 cells) were seeded into confocal cell culture dishes (dia. 15 mm) and incubated for 24 h. […] After incubation, the medium was removed, and the cells were washed thrice. Chemiluminescence imaging of the cells were recorded on LX71 inverted microscope (Olympus), which was equipped with infinity 3-1 (Lumenera) CCD camera. During imaging, the excitation light was blocked and the images were recorded under an open filter, with an acquisition time of 60 s.

[6] = test system: LPS-treated mice; assay: Real-time chemiluminescence imaging in LPS-induced peritonitis model; assay type: in vivo
Procedure: The model was induced by intraperitoneal injection of LPS (15 ng) in 100 μL of PBS or PBS only as a control. Probe BTPDNe (40 μM·Kg^−1) or MPDNe (40 μM·Kg^−1) in PBS (10 mM, pH 7.4) containing 10% DMSO was intraperitoneally injected in mice. Then, chemiluminescent signals at different post-injection timepoints (0, 5, 10, 20, 45 and 60 min) were recorded using IVIS system bioluminescence with acquiring time of 120 s. After 3 h, the peritoneum was flushed with PBS (5 mL)+EDTA (5 mM). After erythrocyte lysis, neutrophils from C57Bl/6 mice were stained with a PE-labeled CD. After treatment with LPS for 3 h, CD11c antibody and an APC-labeled Ly6G antibody were added to the neutrophils, and the neutrophils were analyzed for double-positive events using flow cytometry (BD Biosciences). Data analysis was performed using Flowjo V10. Neutrophils were gated as CD45+CD11b+Ly6G+cells after the exclusion of doublets.
Fluorescence and chemiluminescence in vivo imaging of the probes were measured by an IVIS spectrum imaging system. Chemiluminescence imaging of the cells was recorded on LX71 inverted microscope. Tissue slices were cut by Leica, Germany slicer and imaged by a Nikon ECLIPSE 80i microscope. The images of tissue sections and cells were recorded with a LSM800 confocal laser scanning microscope. The white light was provided by 150 W LED High Bay Thermo Light.

[7] = test system: IMQ-induced psoriasis; assay: Real-time chemiluminescence imaging in IMQ-induced psoriasis model; assay type: in vivo, BALB/c mice; settings: 3 min post-topical administration of BTPDNe, microneedle
Procedure: (§2) The control group was treated with Vaseline (50 mg/d) and the IMQ-treatment group was applied with IMQ cream (60 mg/d, 5%) once a day. […] Probe BTPDNe (10 uM, 1 mM in DMSO) was thoroughly mixed with Aquaphor (˜10 mg) and applied for psoriasis imaging, followed by poly(methyl methacrylate) microneedle treatment for 1 min. Then, chemiluminescent signals at different time-points (0, 3, 5, 10, 15, 30, 45 and 60 min) after probe-treatment were recorded using IVIS system bioluminescence with acquiring time of 180 s. Until the third day, all the mice were sacrificed to collect tissue and blood for further experiments (hematoxylin and eosin (H&E) staining and flow cytometry analysis) as described in Example 11.

[8] = test system: dorsal skins of mice; assay: Histopathologic, immunohistochemical and flow cytometry analyses of dorsal skins (IMQ psoriasis model); assay type: in vivo, BALB/c mice; settings: fresh slides of dorsal skins, 2-day IMQ treatment, immunofluorescence
Procedure: as §2
The dorsal skin samples were separated and soaked in 4% paraformaldehyde (4% PFA) for 12 h and immersed in 30% sucrose solution. The skin samples were stained by hematoxylin and eosin (H&E). Then, the samples were flash-frozen by liquid nitrogen, immobilized with optimal cutting temperature compound, and section slices ([…]). The thickness of epidermis was observed under a microscope (Nikon ECLIPSE 80i microscope). APC-Ly6G, as a neutrophil marker, was used to stain neutrophil cells and DAPI was applied for cell nucleus staining. The immunofluorescence was observed by Nikon ECLIPSE 80i microscope.
After performing in vivo chemiluminescence imaging of neutrophils using BTPDNe in psoriasis-bearing mice with 2 day IMQ treatment, fresh section slices from dorsal skins were stained with Ly6G. Immunofluorescence imaging of slices with activated BTPDNe in green color was observed upon excitation at 405 nm and emission at 500-550 nm, while red color from Ly6G was observed upon excitation from 633-647 nm and emission at 660 nm. The immunofluorescence imaging was acquired by Nikon ECLIPSE 80i microscope.

With `COC1(c2ccc(-c3nc4ccccc4s3)c(OCc3ccc(NC(=O)[C@@H](NC(=O)[C@@H]4CCCN4C(=O)[C@H](C)NC(=O)[C@H](C)NC(C)=O)C(C)C)cc3)c2)OOC12C1CC3CC(C1)CC2C3` (stereo partly shown) [BTPDNe] as the molecule, how does the enzyme kinetic coefficient [1] read?
Its enzyme kinetic coefficient is 22000 M⁻¹ s⁻¹.

And the Kcat ([1]; 37° C., 10 min, pH 7.5)?
Its Kcat is 1.15 s⁻¹.

And the Km ([1]; 37° C., 10 min, pH 7.5)?
The Km was 52.2 µM.

And the “chemiluminescence intensities after incubation with healthy mouse blood” value [2]?
Its value is “Negligible”.

What about the “cytotoxicity (cell viability, MTS)” value [3] of the same molecule?
Its value is “no cytotoxicity”.

What about the “cytotoxicity (cell viability, MTS)” value [4] of the same molecule?
The value was “no cytotoxicity”.

What about the “differentiation of neutrophils from other immune cells” value ([5]; neutrophil, DC, macrophage, CTL, 3T3, 20 μM) of the same molecule?
The value was “differentiated neutrophils from other immune cells”.

And the “activated chemiluminescence signal in neutrophils, 30 min” value ([5]; probe 10 μM, incubation 30 min)?
Its value is 63.0 pixels.

What about the “activated chemiluminescence signal in neutrophils, 1 h” value ([5]; probe 10 μM, incubation 1 h) of the same molecule?
Its value is 42.7 pixels.

And the “chemiluminescent signal relative to MPDNe-injected mice” value ([6]; 20 min post-treatment of probes)?
Its value is roughly 2.15 fold.

What about the “chemiluminescent signals after 60 min” value ([6]; LPS-treated mice, 60 min post injection) of the same molecule?
The value was “could still be observed”.

And the “maximum chemiluminescent signal enhancement in peritoneum relative to negative control group” value ([6]; LPS-treated mice, 3 h post LPS, i.p. probe 40 μM·kg^−1)?
Its value is roughly 9.2 fold.

What about the “chemiluminescent signal from dorsal skins vs control group, day 1” value ([7]; day 1 post IMQ) of the same molecule?
The value was 3.1 fold.

What about the “chemiluminescent signal from dorsal skins vs control group, day 2” value ([7]; day 2 post IMQ) of the same molecule?
Its value is 3.7 fold.

And the “chemiluminescent signal from dorsal skins vs control group, day 3” value ([7]; day 3 post IMQ)?
The value was 2.9 fold.

What about the “colocalization of probe activation with neutrophil marker” value [8] of the same molecule?
Its value is “colocalized well with APC-Ly6G”.
